Earlier results, collected in PubChem BioAssay AID1259410 (Chemical Carcinogenesis Research Information System (CCRIS), 2018).

Test system: rodent tumor promotion studies, tumor incidence
Assay: CCRIS tumor promotion studies
Settings: Route [Promoter]: DERMAL, Species: MOUSE

SMILES: CCCCCCCCCCCCCC(=O)O[C@@H]1[C@@H](C)[C@@]2(O)[C@@H](C=C(CO)C[C@]3(O)C(=O)C(C)=C[C@@H]23)[C@@H]2C(C)(C)[C@]12OC(C)=O
- outcome (Carcinogen: 1,2-DIHYDRO-1,2-DIHYDROXY-5,6-DIMETHYLCHRYSENE, 139562-14-4, Doses [Carcinogen]: 33, 100 NMOL IN 0.1 ML ACETONE ONCE, Doses [Promoter]: 0, 2.5 UG IN 0.1 ML ACETONE 3/WK FOR 20 WK BEGINNING 10 D POST CARCINOGEN DOSE (STUDY DURATION: 20 WK), Route [Carcinogen]: DERMAL, Strain/Sex: CD-1/FEMALE): skin: tumor
- outcome (Carcinogen: 1,3-DIMETHYLBENZO[B]FLUORANTHRENE, 95741-51-8, Doses [Carcinogen]: 40, 100 NMOL TOTAL DOSES GIVEN IN 10 SUBDOSES 1/2 D IN 0.1 ML ACETONE, Doses [Promoter]: 2.5 UG IN 0.1 ML ACETONE 3/WK FOR 30 WK BEGINNING 10 D POST CARCINOGEN TREATMENT (STUDY DURATION: 34 WK), Route [Carcinogen]: DERMAL, Strain/Sex: CD-1/FEMALE): skin: tumors
- outcome (Carcinogen: 1-METHYL-4H-CYCLOPENTA[DEF]PHENANTHRENE, 98090-89-2, Doses [Carcinogen]: 100 UG IN ACETONE (100 µL) 1/2 D FOR A TOTAL OF 10 SUBDOSES (TOTAL DOSE 1 MG), Doses [Promoter]: 0.0025% IN 100 µL ACETONE 3/WK FOR 20 WK BEGINNING POST CARCINOGEN TREATMENT (STUDY DURATION: 23 WK), Route [Carcinogen]: DERMAL, Strain/Sex: CD-1/FEMALE): skin: tumors
- outcome (Carcinogen: 1-METHYLBENZO[B]FLUORANTHRENE, 95741-48-3, Doses [Carcinogen]: 100 NMOL TOTAL DOSE GIVEN IN 10 SUBDOSES 1/2 D IN 0.1 ML ACETONE, Doses [Promoter]: 2.5 UG IN 0.1 ML ACETONE 3/WK FOR 30 WK BEGINNING 10 D POST CARCINOGEN TREATMENT (STUDY DURATION: 34 WK), Route [Carcinogen]: DERMAL, Strain/Sex: CD-1/FEMALE): skin: tumors
- outcome (Carcinogen: 2'-(4-NITROPHENOXY)OXIRANE, 59485-08-4, Doses [Carcinogen]: 5 UMOL IN 0.2 ML 15% DMSO IN ACETONE ONCE, Doses [Promoter]: 0, 15 NMOL IN 0.1 ML ACETONE ONCE 18-24 HR PRIOR TO CARCINOGEN DOSE THEN BEGINNING 1 WK LATER 2/WK FOR DURATION OF STUDY, Route [Carcinogen]: DERMAL, Strain/Sex: ICR/FEMALE): skin: papilloma
- outcome (Carcinogen: 2-AMINO-3-METHYL-9H-PYRIDO[2,3-B]INDOLE, 68006-83-7, Doses [Carcinogen]: 0, 4 MG/0.1 ML DMSO 2/WK FOR 5 WK, Doses [Promoter]: 2.5 UG IN 0.1 ML ACETONE 2/WK FOR 47 WK BEGINNING 1 WK POST CARCINOGEN TREATMENT (STUDY DURATION: 48 WK), Route [Carcinogen]: DERMAL, Strain/Sex: CD-1/FEMALE): skin: tumor
- outcome (Carcinogen: 2-AMINO-5-PHENYLPYRIDINE, 33421-40-8, Doses [Carcinogen]: 0, 10 MG/0.1 ML DMSO 2/WK FOR 5 WK, Doses [Promoter]: 2.5 UG IN 0.1 ML ACETONE 2/WK FOR 47 WK BEGINNING 1 WK POST CARCINOGEN TREATMENT (STUDY DURATION: 48 WK), Route [Carcinogen]: DERMAL, Strain/Sex: CD-1/FEMALE): skin: tumor
- outcome (Carcinogen: 2-METHYLBENZO[K]FLUORANTHENE, 95741-57-4, Doses [Carcinogen]: 4 UMOL (TOTAL DOSE) ADMINISTERED IN 10 SUBDOSES 1/2 D, Doses [Promoter]: 2.5 UG IN 0.1 ML ACETONE 3/WK FOR 30 WK BEGINNING 10 D POST CARCINOGEN TREATMENT (STUDY DURATION: 33 WK), Route [Carcinogen]: DERMAL, Strain/Sex: CRL:CD-1/FEMALE): skin: tumor
- outcome (Carcinogen: 3'-AZIDO-2',3'-DIDEOXYTHYMIDINE, 30516-87-1, Doses [Carcinogen]: 0, 25 MG IN 0.5 ML DISTILLED WATER ADMINISTERED TO PREGNANT RATS ON DAYS 12-18 OF GESTATION, Doses [Promoter]: 2 UG IN 0.1 ML DISTILLED WATER 2/WK FOR 17 WK THEN 5 UG IN 0.1 ML DISTILLED WATER 2/WK FROM WK 18 TO 35 ADMINISTERED TO, Route [Carcinogen]: GAVAGE, Strain/Sex: CD-1/MALE,FEMALE): skin:tumor
- outcome (Carcinogen: 3-AMINO-1,4-DIMETHYL-5H-PYRIDO[4,3-B]INDOLE, 62450-06-0, Doses [Carcinogen]: 0, 2 MG/0.1 ML DMSO 2/WK FOR 5 WK, Doses [Promoter]: 2.5 UG IN 0.1 ML ACETONE 2/WK FOR 47 WK BEGINNING 1 WK POST CARCINOGEN TREATMENT (STUDY DURATION: 48 WK), Route [Carcinogen]: DERMAL, Strain/Sex: CD-1/FEMALE): skin: tumor
- outcome (Carcinogen: 3-AMINO-1-METHYL-5H-PYRIDO[4,3-B]INDOLE, 62450-07-1, Doses [Carcinogen]: 0, 2 MG/0.1 ML DMSO 2/WK FOR 5 WK, Doses [Promoter]: 2.5 UG IN 0.1 ML ACETONE 2/WK FOR 47 WK BEGINNING 1 WK POST CARCINOGEN TREATMENT (STUDY DURATION: 48 WK), Route [Carcinogen]: DERMAL, Strain/Sex: CD-1/FEMALE): skin: tumor
- outcome (Carcinogen: 3-METHYLBENZO[B]FLUORANTHRENE, 95741-50-7, Doses [Carcinogen]: 40, 100 NMOL TOTAL DOSE GIVEN IN 10 SUBDOSES 1/2 D IN 0.1 ML ACETONE, Doses [Promoter]: 2.5 UG IN 0.1 ML ACETONE 3/WK FOR 30 WK BEGINNING 10 D POST CARCINOGEN TREATMENT (STUDY DURATION: 34 WK), Route [Carcinogen]: DERMAL, Strain/Sex: CD-1/FEMALE): skin: tumors
- outcome (Carcinogen: 3-METHYLCHOLANTHRENE, 56-49-5, Doses [Promoter]: 0, 1.8 NMOL IN 0.1 ML ACETONE 2/WK FOR 4 WK BEGINNING 6 WK POST CARCINOGEN DOSE (STUDY DURATION: 2 YR), Route [Carcinogen]: SUBCUTANEOUS, Strain/Sex: S/RVCRI/FEMALE): skin: tumor
- outcome (Carcinogen: 4-CYCLOPENTA[DEF]CHRYSEN-4-ONE, 86853-91-0, Doses [Carcinogen]: 100 UG IN ACETONE (100 µL) 1/2 D FOR A TOTAL OF 10 SUBDOSES (TOTAL DOSE 1 MG), Doses [Promoter]: 0.0025% IN 100 µL ACETONE 3/WK FOR 20 WK BEGINNING POST CARCINOGEN TREATMENT (STUDY DURATION: 23 WK), Route [Carcinogen]: DERMAL, Strain/Sex: CD-1/FEMALE): skin: tumors
- outcome (Carcinogen: 4-FLUOROBENZO[B]FLUORANTHENE, 146746-67-0, Doses [Carcinogen]: 10, 40, 120, 400 NMOL (TOTAL DOSE) APPLIED 1/2 D FOR 10 SUBDOSES, Doses [Carcinogen]: 10, 40, 120, 400 NMOL (TOTAL DOSE) APPLIED 1/2 D FOR 10 SUBDOSES, Doses [Promoter]: 0, 2.5 UG IN 100 µL ACETONE 3/WK FOR 20 WK BEGINNING 10 D POST CARCINOGEN TREATMENT (STUDY DURATION: 22 WK), Route [Carcinogen]: DERMAL, Strain/Sex: CRL:CD-1/FEMALE): skin: tumor
- outcome (Carcinogen: 4-FLUOROBENZO[J]FLUORANTHENE, 129286-36-8, Doses [Carcinogen]: 0.3, 1, 2 UMOL (TOTAL DOSE) ADMINISTERED IN SUBDOSES 1/2 D, Doses [Carcinogen]: 0.3, 1, 2 UMOL (TOTAL DOSE) ADMINISTERED IN SUBDOSES 1/2 D, Doses [Promoter]: 2.5 UG IN 100 µL ACETONE 3/WK FOR 20 WK BEGINNING 10 D POST LAST CARCINOGEN DOSE (STUDY DURATION: 27 WK), Route [Carcinogen]: DERMAL, Strain/Sex: CD-1/FEMALE): skin: tumor
- outcome (Carcinogen: 4-NITROPHENYL VINYL ETHER, 940-14-7, Doses [Carcinogen]: 5 UMOL IN 0.2 ML 15% DMSO IN ACETONE ONCE, Doses [Promoter]: 0, 15 NMOL IN 0.1 ML ACETONE ONCE 18-24 HR PRIOR TO CARCINOGEN DOSE THEN BEGINNING 1 WK LATER 2/WK FOR DURATION OF STUDY, Route [Carcinogen]: DERMAL, Strain/Sex: ICR/FEMALE): skin: papilloma
- outcome (Carcinogen: 4H-CYCLOPENTA[DEF]CHRYSENE, 202-98-2, Doses [Carcinogen]: 100 UG IN ACETONE (100 µL) 1/2 D FOR A TOTAL OF 10 SUBDOSES (TOTAL DOSE 1 MG), Doses [Promoter]: 0.0025% IN 100 µL ACETONE 3/WK FOR 20 WK BEGINNING POST CARCINOGEN TREATMENT (STUDY DURATION: 23 WK), Route [Carcinogen]: DERMAL, Strain/Sex: CD-1/FEMALE): skin: tumors
- outcome (Carcinogen: 5,6-DIMETHYLCHRYSENE, 3697-27-6, Doses [Carcinogen]: 100 NMOL IN 0.1 ML ACETONE ONCE, Doses [Promoter]: 0, 2.5 UG IN 0.1 ML ACETONE 3/WK FOR 20 WK BEGINNING 10 D POST CARCINOGEN DOSE (STUDY DURATION: 20 WK), Route [Carcinogen]: DERMAL, Strain/Sex: CD-1/FEMALE): skin: tumor
- outcome (Carcinogen: 5-CHLOROMETHYLFURFURAL, 1623-88-7, Doses [Carcinogen]: 0, 10, 25 UMOL IN O.2 ML ACETONE:DMSO ONCE, Doses [Carcinogen]: 0, 10, 25 UMOL IN O.2 ML ACETONE:DMSO ONCE, Doses [Promoter]: 0, 2.5 UG 2/WK FOR 24 WK BEGINNING 1 WK POST CARCINOGEN DOSE (STUDY DURATION: 24 WK), Route [Carcinogen]: DERMAL, Strain/Sex: CD-1/FEMALE): skin: papilloma
- outcome (Carcinogen: 5-FLUOROBENZO[B]FLUORANTHENE, 146746-68-1, Doses [Carcinogen]: 10, 40, 120, 400 NMOL (TOTAL DOSE) APPLIED 1/2 D FOR 10 SUBDOSES, Doses [Carcinogen]: 10, 40, 120, 400 NMOL (TOTAL DOSE) APPLIED 1/2 D FOR 10 SUBDOSES, Doses [Promoter]: 0, 2.5 UG IN 100 µL ACETONE 3/WK FOR 20 WK BEGINNING 10 D POST CARCINOGEN TREATMENT (STUDY DURATION: 22 WK), Route [Carcinogen]: DERMAL, Strain/Sex: CRL:CD-1/FEMALE): skin: tumor
- outcome (Carcinogen: 5-HYDROXYMETHYLFURFURAL, 67-47-0, Doses [Carcinogen]: 0, 10, 25 UMOL IN 0.2 ML ACETONE:DMSO ONCE, Doses [Carcinogen]: 0, 10, 25 UMOL IN 0.2 ML ACETONE:DMSO ONCE, Doses [Promoter]: 0, 2.5 UG 2/WK FOR 24 WK BEGINNING 1 WK POST CARCINOGEN DOSE (STUDY DURATION: 24 WK), Route [Carcinogen]: DERMAL, Strain/Sex: CD-1/FEMALE): skin: papilloma
- outcome (Carcinogen: 5-METHYLCHRYSENE, 3697-24-3, Doses [Carcinogen]: 33, 100 NMOL IN 0.1 ML ACETONE ONCE, Doses [Promoter]: 2.5 UG IN 0.1 ML ACETONE 3/WK FOR 25 WK BEGINNING 10 D POST INITIATION (STUDY DURATION: 27 WK), Route [Carcinogen]: DERMAL, Strain/Sex: CD-1/FEMALE): skin: tumors
- outcome (Carcinogen: 5-SULFOOXYMETHYLFURFURAL, 159091-35-7, Doses [Carcinogen]: 0, 25 UMOL IN 0.2 ML ACETONE:DMSO ONCE, Doses [Promoter]: 0, 2.5 UG 2/WK FOR 24 WK BEGINNING 1 WK POST CARCINOGEN DOSE (STUDY DURATION: 24 WK), Route [Carcinogen]: DERMAL, Strain/Sex: CD-1/FEMALE): skin: papilloma
- outcome (Carcinogen: 6-FLUOROBENZO[B]FLUORANTHENE, 125811-13-4, Doses [Carcinogen]: 10, 40, 120, 400 NMOL (TOTAL DOSE) APPLIED 1/2 D FOR 10 SUBDOSES, Doses [Carcinogen]: 10, 40, 120, 400 NMOL (TOTAL DOSE) APPLIED 1/2 D FOR 10 SUBDOSES, Doses [Promoter]: 0, 2.5 UG IN 100 µL ACETONE 3/WK FOR 20 WK BEGINNING 10 D POST CARCINOGEN TREATMENT (STUDY DURATION: 22 WK), Route [Carcinogen]: DERMAL, Strain/Sex: CRL:CD-1/FEMALE): skin: tumor
